Laboratory results published in patent publication US8987314B2, “Amide, urea or sulfone amide linked benzothiazole inhibitors of endothelial lipase” (Bristol-Myers Squibb Company, priority 2012, dated 2015).
Like-named read-outs stand apart in the source and are kept apart here.

What was measured:
[1] = target: Endothelial lipase (EL) (Homo sapiens (Human), UniProt Q9Y5X9); assay: EL assay: endothelial lipase activity with fluorescent substrate A10070 in DMPG vesicles; type: biochemical
Summary of the method: (§1)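 EL from conditioned medium of HT-1080 cells engineered to overexpress endogenous EL; HL partially purified from conditioned medium of HL-overexpressing COS cells. Enzyme preincubated with compound 30 min at 37° C in 50 mM HEPES pH 8.0, 50 mM NaCl, 1 mM CaCl2; DMPG vesicles carrying FRET substrate (0.11 mole fraction) then added.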

[2] = target: hepatic lipase (HL) (Homo sapiens (Human), UniProt P11150); assay: HL assay: hepatic lipase activity with fluorescent substrate A10070 in DMPG vesicles; type: biochemical
Sequence of hepatic lipase (HL) (P11150 23-499, species assumed): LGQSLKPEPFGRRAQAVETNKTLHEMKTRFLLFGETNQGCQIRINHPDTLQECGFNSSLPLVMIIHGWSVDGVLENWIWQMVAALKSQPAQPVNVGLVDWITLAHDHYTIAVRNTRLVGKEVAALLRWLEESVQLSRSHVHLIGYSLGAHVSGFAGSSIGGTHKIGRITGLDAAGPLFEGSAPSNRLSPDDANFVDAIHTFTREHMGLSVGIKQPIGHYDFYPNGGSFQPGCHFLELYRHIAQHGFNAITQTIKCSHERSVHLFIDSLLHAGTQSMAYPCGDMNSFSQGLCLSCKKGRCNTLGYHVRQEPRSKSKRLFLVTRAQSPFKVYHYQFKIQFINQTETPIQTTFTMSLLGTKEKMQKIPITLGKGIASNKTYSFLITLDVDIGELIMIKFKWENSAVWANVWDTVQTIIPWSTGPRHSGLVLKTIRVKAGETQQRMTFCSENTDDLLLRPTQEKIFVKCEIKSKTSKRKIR
Summary of the method: as §1

Sequence of Endothelial lipase (EL) (Q9Y5X9 21-500): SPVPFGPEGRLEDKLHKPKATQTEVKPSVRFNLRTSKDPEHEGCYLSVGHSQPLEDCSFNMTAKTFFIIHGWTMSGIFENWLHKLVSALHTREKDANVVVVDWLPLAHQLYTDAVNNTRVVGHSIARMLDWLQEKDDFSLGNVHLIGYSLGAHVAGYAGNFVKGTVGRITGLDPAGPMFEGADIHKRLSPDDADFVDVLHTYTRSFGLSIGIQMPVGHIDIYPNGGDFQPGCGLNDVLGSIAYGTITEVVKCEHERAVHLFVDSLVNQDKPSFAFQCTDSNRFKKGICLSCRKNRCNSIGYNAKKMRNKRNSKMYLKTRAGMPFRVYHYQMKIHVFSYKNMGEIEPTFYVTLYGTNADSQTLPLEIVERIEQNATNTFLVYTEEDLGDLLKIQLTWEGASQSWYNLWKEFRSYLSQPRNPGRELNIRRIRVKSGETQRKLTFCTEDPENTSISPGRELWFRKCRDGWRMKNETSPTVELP

Row | SMILES | IC50 [1] [nM] | IC50 [2] [nM] | IC50 ([1]; EL from conditioned media of HT-1080 cells, 30 min incubation with compound at 37° C., A10070/DMPG vesicles) [nM] | IC50 ([2]; HL partially purified from conditioned media of COS cells, 30 min incubation with compound at 37° C., A10070/DMPG vesicles) [nM]
1 | NS(=O)(=O)CCNC(=O)C(c1nc2ccc(-c3ccccc3)cc2s1)S(=O)(=O)Cc1ccccc1 (stereo not drawn) [Example B104, 2-(benzylsulfonyl)-2-(6-phenyl-1,3-benzothiazol-2-yl)-N-(2-sulfamoylethyl)a-cetamide] | < 10 | < 10 |  | 
2 | CS(=O)(=O)C(C(=O)NCCS(N)(=O)=O)c1nc2cc(-c3ccncc3F)ccc2s1 (stereo not drawn) [Example B381, 2-[5-(3-fluoropyridin-4-yl)-1,3-benzothiazol-2-yl]-2-methanesulfonyl-N-(2-sulfamoylethyl)acetamide] | 1.1 | 40.2 |  | 
3 | COCCNC(=O)c1ccc(-c2ccc3nc(C(C(=O)NCCS(N)(=O)=O)S(=O)(=O)Cc4ccccc4)sc3c2)cc1 (stereo not drawn) [Example B99, 4-(2-(1-(Benzylsulfonyl)-2-oxo-2-((2-sulfamoylethyl)amino)ethyl)-1,3-benzothiazol-6-yl)-N-(2-methoxyethyl)benzamide] |  |  | < 10 | 55
4 | CS(=O)(=O)C(C(=O)NCCS(N)(=O)=O)c1nc2ccc(-c3ccc(OC(F)(F)F)cc3)cc2s1 (stereo not drawn) [Example B39, 2-(methylsulfonyl)-N-(2-sulfamoylethyl)-2-(6-(4-(trifluoromethoxy)phenyl)-1,3-benzothiazol-2-yl)acetamide] | < 10 | < 10 |  | 
5 | NC(=O)c1ccc(-c2ccc3nc(C(C(=O)NCCS(N)(=O)=O)S(=O)(=O)CCC(F)(F)F)sc3c2)cc1 (stereo not drawn) [Example B228, 4-(2-{[(2-sulfamoylethyl)car-bamoyl](3,3,3-trifluoro-propanesulfonyl)methyl}-1,3-benzothiazol-6-yl)ben-zamide] | 9.2 | 250 |  | 
6 | COCCOc1ccc(-c2ccc3nc(C(C(=O)NCCS(N)(=O)=O)S(C)(=O)=O)sc3c2)cc1 (stereo not drawn) [Example B48, 2-(6-(4-(2-methoxyethoxy)phenyl)-1,3-benzothiazol-2-yl)-2-(methylsulfonyl)-N-(2-sulfamoylethyl)acetamide] | < 10 | 11 |  | 
7 | COCCNC(=O)c1ccc(-c2ccc3nc(C(C(=O)NCCS(N)(=O)=O)S(=O)(=O)C(C)C)sc3c2)cc1 (stereo not drawn) [Example B267, N-(2-methoxyethyl)-4-{2-[(propane-2-sulfonyl)[(2-sul-famoylethyl)carbamoyl]meth-yl]-1,3-benzothiazol-6-yl}benzamide] | 44.5 | 289 |  | 
8 | NS(=O)(=O)CCNC(=O)C(c1nc2ccc(-c3cccc(C(=O)N4CCCC(F)(F)C4)c3)cc2s1)S(=O)(=O)CCC(F)(F)F (stereo not drawn) [Example B335, 2-{6-[3-(3,3-difluoro-piperidine-1-carbonyl)phen-yl]-1,3-benzothiazol-2-yl}-N-(2-sulfamoyl-ethyl)-2-(3,3,3-trifluoro-propanesulfonyl)acetamide] | 5.5 | 14.7 |  | 
9 | Cc1cc2nc(C(C(=O)NCCS(N)(=O)=O)S(=O)(=O)Cc3ccccc3)sc2cc1-c1ccc(C(=O)N2CC(C)(O)C2)cc1 (stereo not drawn) [Example B347, 2-{6-[4-(3-hydroxy-3-methylazetidine-1-carbonyl)phenyl]-5-methyl-1,3-benzothiazol-2-yl}-2-phenylmethane-sulfonyl-N-(2-sulfamoylethyl)acetamide] | 3.4 | 580 |  | 
10 | COCCS(=O)(=O)C(C(=O)NCCS(N)(=O)=O)c1nc2ccc(-c3ccnc(O)c3)cc2s1 (stereo not drawn) [Example B190, 2-((2-methoxyethyl)sul-fonyl)-2-(6-(2-oxo-1,2-dihydro-4-pyridinyl)-1,3-benzothiazol-2-yl)-N-(2-sulfamoylethyl)acetamide] | < 10 | 272 |  | 
11 | CS(=O)(=O)C(C(=O)NCCS(N)(=O)=O)c1nc2cc(-c3ccc(C(=O)NCCO)cc3)ccc2s1 (stereo not drawn) [Example B94, N-(2-hydroxyethyl)-4-(2-(1-(methylsulfonyl)-2-oxo-2-((2-sulfamoylethyl)a-mino)ethyl)-1,3-benzothiazol-5-yl)ben-zamide] | < 10 | 123 |  | 
12 | CS(=O)(=O)C(C(=O)NCCS(N)(=O)=O)c1nc2ccc(-c3ccc(F)cc3)cc2s1 (stereo not drawn) [Example B36, 2-(6-(4-fluorophenyl)-1,3-benzothiazol-2-yl)-2-(methylsulfonyl)-N-(2-sulfamoylethyl)acetamide] | < 10 | < 10 |  | 
13 | COc1cc(-c2ccc3nc(C(C(=O)NCCS(N)(=O)=O)S(C)(=O)=O)sc3c2)ccn1 (stereo not drawn) [Example B147, 2-(6-(2-methoxy-4-pyridinyl)-1,3-benzothiazol-2-yl)-2-(methylsulfonyl)-N-(2-sulfamoylethyl)acetamide] | < 10 | < 10 |  | 
14 | Cc1cc2nc(C(C(=O)NCCS(N)(=O)=O)S(=O)(=O)CCC(F)(F)F)sc2cc1-c1ccc(F)nc1 (stereo not drawn) [Example B130, 2-(6-(6-fluoro-3-pyridinyl)-5-methyl-1,3-benzothiazol-2-yl)-2-(3,3,3-trifluoropropyl-sulfonyl)-N-(2-sulfamoylethyl)acetamide] | < 10 | 13 |  | 
15 | Cc1cc2nc(C(C(=O)NCCS(N)(=O)=O)S(=O)(=O)Cc3ccccc3)sc2cc1-c1ccc(C(=O)O)cc1 (stereo not drawn) [Example B325, 4-(5-methyl-2-{phen-ylmethanesulfonyl[(2-sulfa-moylethyl)carbamoyl]meth-yl}-1,3-benzothiazol-6-yl)benzoic acid] | 1.2 | 104 |  | 
16 | NS(=O)(=O)c1cccc(CNC(=O)C(c2nc3ccc(-c4ccncc4Cl)cc3s2)S(=O)(=O)Cc2ccccc2)c1 (stereo not drawn) [Example B278, 2-[6-(3-chloropyridin-4-yl)-1,3-benzothiazol-2-yl]-2-phenylmethanesulfonyl-N-[(3-sulfamoylphen-yl)methyl]acetamide] | 158 | 355 |  | 
17 | Cc1nnc(CNC(=O)C(c2nc3cc(F)c(-c4ccccc4)cc3s2)S(C)(=O)=O)o1 (stereo not drawn) [Example B154, 2-(5-fluoro-6-phenyl-1,3-benzothiazol-2-yl)-N-[(5-methyl-1,3,4-oxadiazol-2-yl)methyl]-2-(methylsulfonyl)acetamide] | < 10 | 11 |  | 
18 | CS(=O)(=O)C(C(=O)NCCS(N)(=O)=O)c1nc2ccc(-c3ccc4c(c3)CNC4=O)cc2s1 (stereo not drawn) [Example B182, 2-(methylsulfonyl)-2-(6-(1-oxo-2,3-dihydro-1H-isoindol-5-yl)-1,3-benzothiazol-2-yl)-N-(2-sulfamoylethyl)acetamide] | < 10 | 36 |  | 
19 | CS(=O)(=O)C(C(=O)NCCS(N)(=O)=O)c1nc2ccc(-c3ccc(C(=O)N4CC(F)C4)cc3)cc2s1 (stereo not drawn) [Example B330, 2-{6-[4-(3-fluoroazetidine-1-carbonyl)phenyl]-1,3-benzothiazol-2-yl}-2-methanesulfonyl-N-(2-sulfamoylethyl)acetamide] | 0.7 | 46.7 |  | 
20 | NS(=O)(=O)CCNC(=O)C(c1nc2ccc(-c3ccc(CO)cc3)cc2s1)S(=O)(=O)Cc1ccc(F)cc1 (stereo not drawn) [Example B245, 2-[(4-fluorophenyl)meth-anesulfonyl]-2-{6-[4-(hydroxymethyl)phenyl]-1,3-benzothiazol-2-yl}-N-(2-sulfamoylethyl)a-cetamide] | 2.1 | 130 |  | 
21 | CC(C)(O)Cn1ccc(-c2ccc3nc(C(C(=O)NCCS(N)(=O)=O)S(=O)(=O)Cc4ccc(F)cc4)sc3c2)cc1=O (stereo not drawn) [Example B363, 2-[(4-fluorophenyl)meth-anesulfonyl]-2-{6-[1-(2-hydroxy-2-methylpropyl)-2-oxo-1,2-dihydropyridin-4-yl]-1,3-benzothiazol-2-yl}-N-(2-sulfamoylethyl)acetamide] | 11.6 | 10000 |  | 
